Test results from article PMC7497692 (Investigational New Drugs, 2020).
Like-named read-outs stand apart in the source and are kept apart here.

Assay: Unbound fraction of tepotinib in plasma, ex vivo equilibrium dialysis (part A)
Format: in vitro ADME, human healthy male volunteers
Conditions: male, human, 498 mg
Experimental: Participants were hospitalized from day 1 to day 16 of the study, and further assessed on days 19, 22, and 25 (trial end). […] Pre-dose feces and urine samples were collected on day 1 and day 2, respectively. Urine was collected at 4- to 12-h intervals on day 1 and every 24 h thereafter up to day 16. Feces were collected every 24 h up to day 16. Provision was made to collect further samples up to day 39 if >1% of the administered dose was detectable in the total (urine and feces) excreta per day on two consecutive measurements.
Plasma (300 μL) was dialyzed against 100 mM sodium phosphate buffer (pH 7.4) in an orbital shaker at 37 °C for 18 h. The deuterated internal standard [^2H]-MSC2156119A and 100 mM sodium phosphate buffer (pH 7.4) were added to 5 μL of the dialyzed samples and centrifuged. Supernatant (30 μL) was diluted with acetonitrile/water (50 + 50, v/v) and centrifuged, and 5–20 μL aliquots were injected onto an XBridge C18 column (2.1 × 20 mm; 5 μm; Waters, Milford, Massachusetts, USA). Separation was carried out using a mobile phase gradient (eluent A: 5 mM ammonium bicarbonate in water; eluent B: 5 mM ammonium bicarbonate in methanol) with a flow rate of 1.2 mL/min. Mass spectrometric detection of tepotinib and its internal standard was performed as described above. The LLOQ was 0.015 ng/mL in plasma dialysates and 1.00 ng/mL in plasma. Calibration standards between 0.015 and 30.0 ng/mL (plasma dialysates), and between 1.00 ng/mL and 1000 ng/mL (plasma) were calculated by weighted (1/x^2) quadratic regression analysis, respectively.

SMILES: CN1CCC(COc2cnc(-c3cccc(Cn4nc(-c5cccc(C#N)c5)ccc4=O)c3)nc2)CC1 [Tepotinib]
- fraction unbound at 18 h (pH 7.4, ex vivo, 4–24 h after oral administration, read-out: highest free fraction observed in individual participants): 0.0325
- fraction unbound at 18 h (pH 7.4, ex vivo, 4–24 h after oral administration, read-out: lowest free fraction observed in individual participants): 0.0165
- fraction unbound at 18 h (pH 7.4, unbound fraction of tepotinib in plasma, median values, ex vivo, range of medians at 4, 8, 12 and 24 h after oral administration): 0.018 to 0.024
